Assay results: patent US9815833B2, “Pyridine derivative and medical use thereof” (Chengdu Easton Biopharmaceuticals Co., Ltd., priority 2013, dated 2017)

How the values were obtained:
APTT of healthy mice = assay: Effects on APTT of healthy mice; assay type: in vivo, KM mice; conditions: 5 mg/kg i.g.; for APTT (sec): KM mice, blood collected 1 hour after administration, x ± SD, 10 mice per group; for anticoagulant effect (APTT) compared with positive drug Apixaban: same dose
Text: Test for four coagulation parameters (including prothrombin time (PT), activated partial thromboplastin time (APTT), thrombin time (TT) and fibrinogen (FIB)) belongs to one of clinical inspection items, and is necessary to thrombotic disease inspections or before the surgery. APTT mainly reflects whether the intrinsic coagulation system status is normal or not. Accordingly, the APTT value is used as a detection indicator in this test of the present invention. The anticoagulant effects of the compounds prepared in the Examples of the present invention were evaluated through the effects thereof on APTT of mice.
(§1) KM mice, weighing 28-30 g, male, 170 mice, provided by Chengdu Dashuo Biological Technology Co., Ltd.; Production facility license: SCXK (Chuan) 2008-24. Animals were housed in the animal room after purchased, adaptively observed for at least three days, and used for assays unless they were qualified for the quarantine standard.
(1) Grouping: mice were grouped and tested according to Table 1, wherein there were 10 mice in each group.
Mice in each group were administrated with the corresponding investigational drugs (mice in control group were administrated with the normal saline). At 1 hour after administration, blood was collected into 0.5 ml vacuum blood-collection tube containing sodium citrate from mice orbit. APTT values of animals were measured after collecting the blood samples.
Excel was used for statistics, experimental data were expressed as (x±SD), and two-sided T-test method was used to statistically compare the experimental data among multiple groups.

[1] = Pharmacokinetic studies on healthy rats; assay type: in vivo; conditions: male, rat, po, SD rats, 10 mg/kg i.g., plasma; for AUC(0-t): read-out: AUC0-24
Text: SD rats were used as test animals, and LC/MS/MS method was applied for measuring the drug concentrations of rats at different time after administrating the compounds of the present invention by gavage, respectively. Pharmacokinetic behaviors of the compounds of the present invention on rats were studied, so as to evaluate the pharmacokinetic characteristics thereof.
as §1, with “SD rats,” for “KM mice,”, “180-220” for “28-30”, “40 rats, 5 rats in each group,” for “170 mice,”
3.1 Grouping: the rats were randomly grouped according to Table 3, with no significant difference among the groups;
Rats in each group was administrated by gavage with the corresponding investigational drugs according to Table 3, at 5 min, 10 min, 20 min, 30 min, 1 h, 2 h, 4 h, 6 h, 8 h, 10 h, 12 h, 24 h after administration, 0.5 ml of blood was taken into the vacuum blood-collection tubes containing heparin sodium, and centrifuged at 5,000 rpm to obtain plasma which was stored at −20° C.
50 μL plasma at each time after administration was taken, then 150 μL of acetonitrile was added, which was subjected to vortex at 1500 rpm for 2 minutes. Solution was centrifuged for 15 minutes (3500 r/min), after that 10 μL supernatant was analyzed by HPLC/MS/MS.
The pharmacokinetic behaviors of the investigational compounds were subjected to compartmental model fitting, and DAS 2.0 software was used to calculate the main pharmacokinetic parameters.

human FXa = human FXa (Homo sapiens, UniProt P00742); assay: Human FXa inhibition assay (fluorogenic substrate); assay type: biochemical; conditions: human FXa 1 nM, substrate 106.7 μM, 30 minutes at room temperature, pH 8.0
Protocol: Inhibitory effects of the compounds of the present invention on human FXa were studied, to measure IC50 values thereof on human FXa.
human FXa enzyme (Sekisui Diagnostics, REF 526);
Fluorogenic substrate for the FXa assay (American diagnostic, Product No. 222F);
Buffer: 20 mM Tris-HCl, 200 mM NaCl, 2.5 mM CaCl2, pH 8.0.
(2) 10 mM of each compound was 5-fold diluted serially with buffer to different concentrations (from 40 μM to 0.00002048 μM);
(3) 6 μL of the above diluted solutions of Step (2) were added into each well of 384-well plate to make a final volume of 60 μL, and the final concentration of the compound ranged from 4 μM to […];
(4) 30 μL of human FXa enzyme (2 nM) was added into each well, with a final concentration of 1 nM;
(5) 24 μL human FXa fluorescent enzyme substrate (266.7 μM) was added into each well, with a final concentration of 106.7 μM;
(6) the plate was gently shaked for 5 minutes and then incubated for 30 minutes at room temperature, with avoidance from light;
(7) fluorescence signal was read at 360/440 nm, the inhibition percentage was measured, and 4 Parameter Logistic Model in Xlfit software was employed to calculate IC50.

Chain of human FXa (P00742 235-488 limits assumed): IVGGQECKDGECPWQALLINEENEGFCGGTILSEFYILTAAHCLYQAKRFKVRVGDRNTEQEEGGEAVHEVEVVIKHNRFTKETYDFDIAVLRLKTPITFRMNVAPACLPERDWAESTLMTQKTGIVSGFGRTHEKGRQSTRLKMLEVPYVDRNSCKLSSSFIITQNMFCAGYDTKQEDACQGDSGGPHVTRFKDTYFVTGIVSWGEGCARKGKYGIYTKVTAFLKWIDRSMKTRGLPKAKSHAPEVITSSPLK
Chain of human FXa (P00742 41-179 partner limits assumed): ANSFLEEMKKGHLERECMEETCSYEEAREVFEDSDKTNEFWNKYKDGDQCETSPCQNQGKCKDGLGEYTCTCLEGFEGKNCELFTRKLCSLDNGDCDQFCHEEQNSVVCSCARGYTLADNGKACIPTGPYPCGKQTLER

With `Cc1cc(N2CCc3c(C(N)=O)nn(-c4cc(F)cc(F)c4)c3C2=O)ccc1N1CCCC1=O` [Example 17, 1-(3,5-difluoro-phenyl)-7-oxo-6-[3-methyl-4-(2-oxo-pyrrolidin-1-yl)phenyl]-4,5,6,7-tetrahydro-1H-pyrazolo[3,4-c]pyridine-3-carboxamide] as the molecule, how does the “APTT (sec)” value (APTT of healthy mice) read?
The value was 30.79 ± 2.91 * * ^ΔΔ sec.

What about the “anticoagulant effect (APTT) compared with positive drug Apixaban” value (APTT of healthy mice; mice, 1 h after administration) of the same molecule?
Its value is “significantly better than positive drug Apixaban”.

What about the Cmax [1] of the same molecule?
Its Cmax is 9670 ng/mL.

And the Tmax [1]?
Its Tmax is 0.25 h.

And the half-life [1]?
Its half-life is 6.8 h.

What about the AUC(0-t) [1] of the same molecule?
Its AUC(0-t) is 38600 ng·h/mL.

What about the IC50 (human FXa) of the same molecule?
Its IC50 is 0.015 nM.

What does the source list for `NC(=O)c1nn(-c2cc(F)cc(F)c2)c2c1CCN(c1ccc(N3CCCC3=O)cc1)C2=O` [Example 8, 1-(3,5-difluoro-phenyl)-7-oxo-6-[4-(2-oxo-pyrrolidin-1-yl)phenyl]-4,5,6,7-tetrahydro-1H-pyrazolo[3,4-c]pyridine-3-carboxamide]?
APTT (sec) (APTT of healthy mice): 27.82 ± 2.71 * * ^ΔΔ sec; anticoagulant effect (APTT) compared with positive drug Apixaban (APTT of healthy mice; mice, 1 h after administration): significantly better than positive drug Apixaban; Cmax [1]: 7860 ng/mL; Tmax [1]: 0.3 h; half-life [1]: 6.2 h; AUC(0-t) [1]: 20100 ng·h/mL

With `COc1ccc(-n2nc(C(N)=O)c3c2C(=O)N(c2ccc(N4CCCCC4=O)cc2)CC3)cc1` [Apixaban, reference compound] as the molecule, how does the “APTT (sec)” value (APTT of healthy mice) read?
The value was 21.46 ± 2.32 * * sec.

And the “APTT value compared with the control group” value (APTT of healthy mice; mice, 1 h after administration, P<0.01)?
Its value is “significantly increase”.

What about the Cmax [1] of the same molecule?
The Cmax was 6850 ng/mL.

And the Tmax [1]?
Its Tmax is 0.5 h.

And the half-life [1]?
Its half-life is 5.2 h.

What about the AUC(0-t) [1] of the same molecule?
Its AUC(0-t) is 12900 ng·h/mL.

With `Cc1ccc(-n2nc(C(N)=O)c3c2C(=O)N(c2ccc(N4CCCC4=O)cc2C)CC3)c(C)c1` [Example 13, 1-(2,4-dimethyl-phenyl)-7-oxo-6-[2-methyl-4-(2-oxo-pyrrolidin-1-yl)phenyl]-4,5,6,7-tetrahydro-1H-pyrazolo[3,4-c]pyridine-3-carboxamide] as the molecule, how does the “APTT (sec)” value (APTT of healthy mice) read?
The value was 24.78 ± 2.67 * * ^Δ sec.

What about the “anticoagulant effect (APTT) compared with positive drug Apixaban” value (APTT of healthy mice; mice, 1 h after administration) of the same molecule?
The value was “superior to positive drug Apixaban”.

With `NC(=O)c1nn(-c2ccccc2F)c2c1CCN(c1ccc(N3CCCCC3=O)cc1)C2=O` [Example 3, 1-(2-fluorophenyl)-7-oxo-6-[4-(2-oxo-piperidin-1-yl)phenyl]-4,5,6,7-tetrahydro-1H-pyrazolo[3,4-c]pyridine-3-carboxamide] as the molecule, how does the “APTT (sec)” value (APTT of healthy mice) read?
Its value is 27.81 ± 3.42 * * ^ΔΔ sec.

And the “anticoagulant effect (APTT) compared with positive drug Apixaban” value (APTT of healthy mice; mice, 1 h after administration)?
Its value is “significantly better than positive drug Apixaban”.

Which “APTT (sec)” value (APTT of healthy mice) does the source give for `COc1ccc(-n2nc(C(N)=O)c3c2C(=O)N(c2ccc(N4CCCCC4=O)cc2)CC3)cc1F` [Example 4, 1-(3-fluoro-4-methoxyphenyl)-7-oxo-6-[4-(2-oxo-piperidin-1-yl)phenyl]-4,5,6,7-tetrahydro-1H-pyrazolo[3,4-c]pyridine-3-carboxamide] here?
The value was 24.78 ± 2.64 * * ^Δ sec.

And the “anticoagulant effect (APTT) compared with positive drug Apixaban” value (APTT of healthy mice; mice, 1 h after administration)?
The value was “superior to positive drug Apixaban”.

With `COc1ccccc1-n1nc(C(N)=O)c2c1C(=O)N(c1ccc(N3CCCC3=O)cc1C)CC2` [Example 10, 1-(2-methoxyphenyl)-7-oxo-6-[2-methyl-4-(2-oxo-pyrrolidin-1-yl)phenyl]-4,5,6,7-tetrahydro-1H-pyrazolo[3,4-c]pyridine-3-carboxamide] as the molecule, how does the “APTT (sec)” value (APTT of healthy mice) read?
Its value is 24.67 ± 2.37 * * ^Δ sec.

What about the “anticoagulant effect (APTT) compared with positive drug Apixaban” value (APTT of healthy mice; mice, 1 h after administration) of the same molecule?
Its value is “superior to positive drug Apixaban”.

Which results are given for `COc1ccc(-n2nc(C(N)=O)c3c2C(=O)N(c2ccc(N4CCCC4=O)cc2C)CC3)cc1` [Example 9, 1-(4-methoxyphenyl)-7-oxo-6-[2-methyl-4-(2-oxo-pyrrolidin-1-yl)phenyl]-4,5,6,7-tetrahydro-1H-pyrazolo[3,4-c]pyridine-3-carboxamide]?
APTT (sec) (APTT of healthy mice): 31.29 ± 2.80 * * ^ΔΔ sec; anticoagulant effect (APTT) compared with positive drug Apixaban (APTT of healthy mice; mice, 1 h after administration): significantly better than positive drug Apixaban; Cmax [1]: 9360 ng/mL; Tmax [1]: 0.2 h; half-life [1]: 6.4 h; AUC(0-t) [1]: 36400 ng·h/mL; IC50 (human FXa): 0.078 nM

What does the source list for `CSc1ccc(-n2nc(C(N)=O)c3c2C(=O)N(c2ccc(N4CCCCC4=O)cc2)CC3)cc1` [Example 2, 1-(4-methylthiophenyl)-7-oxo-6-[4-(2-oxo-piperidin-1-yl)phenyl]-4,5,6,7-tetrahydro-1H-pyrazolo[3,4-c]pyridine-3-carboxamide]?
APTT (sec) (APTT of healthy mice): 24.50 ± 2.50 * * ^Δ sec; anticoagulant effect (APTT) compared with positive drug Apixaban (APTT of healthy mice; mice, 1 h after administration): superior to positive drug Apixaban

Which “APTT (sec)” value (APTT of healthy mice) does the source give for `COc1ccc(-n2nc(C(N)=O)c3c2C(=O)N(c2ccc(N4CCCCC4=O)cc2C)CC3)cc1` [Example 19, 1-(4-methoxyphenyl)-7-oxo-6-[2-methyl-4-(2-oxo-piperidin-1-yl)phenyl]-4,5,6,7-tetrahydro-1H-pyrazolo[3,4-c]pyridine-3-carboxamide] here?
The value was 26.73 ± 3.12 * * ^ΔΔ sec.

What about the “anticoagulant effect (APTT) compared with positive drug Apixaban” value (APTT of healthy mice; mice, 1 h after administration) of the same molecule?
Its value is “significantly better than positive drug Apixaban”.

Which results are given for `COc1ccc(-n2nc(C(N)=O)c3c2C(=O)N(c2ccc(N4CCCC4=O)c(C)c2)CC3)cc1F` [Example 18, 1-(3-fluoro-4-methoxyphenyl)-7-oxo-6-[3-methyl-4-(2-oxo-pyrrolidin-1-yl)phenyl]-4,5,6,7-tetrahydro-1H-pyrazolo[3,4-c]pyridine-3-carboxamide]?
APTT (sec) (APTT of healthy mice): 28.96 ± 2.42 * * ^ΔΔ sec; anticoagulant effect (APTT) compared with positive drug Apixaban (APTT of healthy mice; mice, 1 h after administration): significantly better than positive drug Apixaban; Cmax [1]: 8970 ng/mL; Tmax [1]: 0.25 h; half-life [1]: 6.8 h; AUC(0-t) [1]: 35500 ng·h/mL; IC50 (human FXa): 0.091 nM

Which results are given for `Cc1cc(N2CCCCC2=O)ccc1N1CCc2c(C(N)=O)nn(-c3cccc(F)c3)c2C1=O` [Example 20, 1-(3-fluorophenyl)-7-oxo-6-[2-methyl-4-(2-oxo-piperidin-1-yl)phenyl]-4,5,6,7-tetrahydro-1H-pyrazolo[3,4-c]pyridine-3-carboxamide]?
APTT (sec) (APTT of healthy mice): 24.71 ± 3.20 * * ^Δ sec; anticoagulant effect (APTT) compared with positive drug Apixaban (APTT of healthy mice; mice, 1 h after administration): superior to positive drug Apixaban

With `NC(=O)c1nn(-c2ccccc2F)c2c1CCN(c1ccc(N3CCCC3=O)cc1)C2=O` [Example 6, 1-(2-fluorophenyl)-7-oxo-6-[4-(2-oxo-pyrrolidin-1-yl)phenyl]-4,5,6,7-tetrahydro-1H-pyrazolo[3,4-c]pyridine-3-carboxamide] as the molecule, how does the “APTT (sec)” value (APTT of healthy mice) read?
The value was 27.32 ± 3.12 * * ^ΔΔ sec.

And the “anticoagulant effect (APTT) compared with positive drug Apixaban” value (APTT of healthy mice; mice, 1 h after administration)?
Its value is “significantly better than positive drug Apixaban”.

And the Cmax [1]?
The Cmax was 7560 ng/mL.

What about the Tmax [1] of the same molecule?
Its Tmax is 0.3 h.

What about the half-life [1] of the same molecule?
The half-life was 5.8 h.

What about the AUC(0-t) [1] of the same molecule?
The AUC(0-t) was 19800 ng·h/mL.

With `COc1ccc(-n2nc(C(N)=O)c3c2C(=O)N(c2ccc(N4CCCCC4=O)cc2OC)CC3)cc1` [Example 21, 1-(4-methoxyphenyl)-7-oxo-6-[2-methoxy-4-(2-oxo-piperidin-1-yl)phenyl]-4,5,6,7-tetrahydro-1H-pyrazolo[3,4-c]pyridine-3-carboxamide] as the molecule, how does the “APTT (sec)” value (APTT of healthy mice) read?
Its value is 24.65 ± 2.18 * * ^Δ sec.

And the “anticoagulant effect (APTT) compared with positive drug Apixaban” value (APTT of healthy mice; mice, 1 h after administration)?
The value was “superior to positive drug Apixaban”.
